Source: publication PMC7504104, “Dietary Intake of Rosmarinic Acid Increases Serum Inhibitory Activity in Amyloid A Aggregation and Suppresses Deposition in the Organs of Mice” (International Journal of Molecular Sciences, 2020)

Target: T1, recombinant mouse SAA 1.1 (mSAA) (Mus musculus, UniProt P05366)
T1 construct: gene Saa1; cDNA in pET-15b, expressed in E. coli Rosetta, Ni Sepharose purified
T1 sequence (P05366 20-122): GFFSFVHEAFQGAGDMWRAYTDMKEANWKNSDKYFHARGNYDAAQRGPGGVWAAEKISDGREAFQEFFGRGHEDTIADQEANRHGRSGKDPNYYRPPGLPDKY
Assay: quantum-dot fluorescence imaging of amyloid aggregation inhibition (MSHTS)
Format: biochemical

**Q.** With `O=C(/C=C/c1ccc(O)c(O)c1)O[C@H](Cc1ccc(O)c(O)c1)C(=O)O` [RA, rosmarinic acid] as the compound, how does the EC50 read?
**A.** Its EC50 is 33.2 ± 2.19 µM.
